Assay results: PubChem BioAssay (NCI)
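In this assay, cells in 96-well plates receive the compound at five concentrations for 48 hours. Endpoints are linearly interpolated between the surrounding concentrations. Here, GI50 denotes the concentration required for 50% inhibition of growth. TGI: concentration producing complete growth inhibition.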

Columns and labels:
Experiment in all cases: inhibition of tumour cell growth, NCI panel, 48 h
SF-295 CNS = system: SF-295 CNS
M14 melanoma = system: M14 melanoma
SNB-19 CNS = system: SNB-19 CNS
SR leukemia = system: SR leukemia
UO-31 renal = system: UO-31 renal
KM12 colon = system: KM12 colon
A549 NSCLC = system: A549 NSCLC
TK-10 renal = system: TK-10 renal
NCI-H226 lung = system: NCI-H226 lung
SK-OV-3 ovarian = system: SK-OV-3 ovarian
HOP-92 NSCLC = system: HOP-92 NSCLC
OVCAR-4 ovarian = system: OVCAR-4 ovarian
MDA-MB-231 breast = system: MDA-MB-231 breast
MCF7 breast = system: MCF7 breast
NCI-H460 lung = system: NCI-H460 lung
OVCAR-5 ovarian = system: OVCAR-5 ovarian
RPMI-8226 leukemia = system: RPMI-8226 leukemia
COLO 205 colon = system: COLO 205 colon
HL-60(TB) leukemia = system: HL-60(TB) leukemia
OVCAR-3 ovarian = system: OVCAR-3 ovarian
EKVX NSCLC = system: EKVX NSCLC
HCC-2998 colon = system: HCC-2998 colon
NCI-H23 lung = system: NCI-H23 lung
786-0 renal = system: 786-0 renal
MDA-N = system: MDA-N
SF-268 CNS = system: SF-268 CNS
NCI/ADR-RES ovarian = system: NCI/ADR-RES ovarian
CAKI-1 renal = system: CAKI-1 renal
IGROV1 ovarian = system: IGROV1 ovarian
UACC-257 melanoma = system: UACC-257 melanoma
A498 renal = system: A498 renal
HCT-15 colon = system: HCT-15 colon
CCRF-CEM leukemia = system: CCRF-CEM leukemia
HS 578T breast = system: HS 578T breast
BT-549 breast = system: BT-549 breast
HT29 colon = system: HT29 colon
OVCAR-8 ovarian = system: OVCAR-8 ovarian
MOLT-4 leukemia = system: MOLT-4 leukemia
HCT-116 colon = system: HCT-116 colon
SNB-75 CNS = system: SNB-75 CNS
SK-MEL-28 melanoma = system: SK-MEL-28 melanoma
U251 CNS = system: U251 CNS
MALME-3M melanoma = system: MALME-3M melanoma
UACC-62 melanoma = system: UACC-62 melanoma
SN12C renal = system: SN12C renal
SK-MEL-5 melanoma = system: SK-MEL-5 melanoma
PC-3 prostate = system: PC-3 prostate
NCI-H522 lung = system: NCI-H522 lung
SW-620 colon = system: SW-620 colon
MDA-MB-435 = system: MDA-MB-435
ACHN renal = system: ACHN renal
SK-MEL-2 melanoma = system: SK-MEL-2 melanoma
HOP-62 NSCLC = system: HOP-62 NSCLC
LOX IMVI melanoma = system: LOX IMVI melanoma
K-562 leukemia = system: K-562 leukemia
T-47D breast = system: T-47D breast

Question: How did the TGI (SF-295 CNS) turn out when `O=C(Nc1ccc(Cl)cc1)c1cc(S(=O)(=O)Nc2n[nH]c(=O)[nH]2)c(SSc2cc(Cl)c(C(=O)Nc3ccc(Cl)cc3)cc2S(=O)(=O)Nc2n[nH]c(=O)[nH]2)cc1Cl` was run?
Answer: > 100 µM

Question: And the TGI (M14 melanoma)?
Answer: > 100 µM

Question: And the TGI (SNB-19 CNS)?
Answer: > 100 µM

Question: What about the TGI (SR leukemia) of the same molecule?
Answer: > 100 µM

Question: What about the TGI (UO-31 renal) of the same molecule?
Answer: > 100 µM

Question: And the TGI (KM12 colon)?
Answer: > 100 µM

Question: What about the TGI (A549 NSCLC) of the same molecule?
Answer: > 100 µM

Question: And the TGI (TK-10 renal)?
Answer: > 100 µM

Question: And the TGI (NCI-H226 lung)?
Answer: > 100 µM

Question: And the TGI (SK-OV-3 ovarian)?
Answer: > 100 µM

Question: What about the TGI (HOP-92 NSCLC) of the same molecule?
Answer: > 100 µM

Question: What about the TGI (OVCAR-4 ovarian) of the same molecule?
Answer: > 100 µM

Question: What about the TGI (MDA-MB-231 breast) of the same molecule?
Answer: > 100 µM

Question: What about the TGI (MCF7 breast) of the same molecule?
Answer: > 100 µM

Question: What about the TGI (NCI-H460 lung) of the same molecule?
Answer: > 100 µM

Question: And the TGI (OVCAR-5 ovarian)?
Answer: > 100 µM

Question: And the TGI (RPMI-8226 leukemia)?
Answer: > 100 µM

Question: And the TGI (COLO 205 colon)?
Answer: > 100 µM

Question: And the TGI (HL-60(TB) leukemia)?
Answer: > 100 µM

Question: What about the TGI (OVCAR-3 ovarian) of the same molecule?
Answer: > 100 µM

Question: And the TGI (EKVX NSCLC)?
Answer: > 100 µM

Question: What about the TGI (HCC-2998 colon) of the same molecule?
Answer: > 100 µM

Question: What about the TGI (NCI-H23 lung) of the same molecule?
Answer: > 100 µM

Question: What about the TGI (786-0 renal) of the same molecule?
Answer: > 100 µM

Question: What about the TGI (MDA-N) of the same molecule?
Answer: > 100 µM

Question: What about the TGI (SF-268 CNS) of the same molecule?
Answer: > 100 µM

Question: What about the TGI (NCI/ADR-RES ovarian) of the same molecule?
Answer: > 100 µM

Question: And the TGI (CAKI-1 renal)?
Answer: > 100 µM

Question: What about the TGI (IGROV1 ovarian) of the same molecule?
Answer: > 100 µM

Question: What about the TGI (UACC-257 melanoma) of the same molecule?
Answer: > 100 µM

Question: And the TGI (A498 renal)?
Answer: > 100 µM

Question: What about the TGI (HCT-15 colon) of the same molecule?
Answer: > 100 µM

Question: What about the TGI (CCRF-CEM leukemia) of the same molecule?
Answer: > 100 µM

Question: What about the TGI (HS 578T breast) of the same molecule?
Answer: > 100 µM

Question: And the TGI (BT-549 breast)?
Answer: > 100 µM

Question: What about the TGI (HT29 colon) of the same molecule?
Answer: > 100 µM

Question: And the TGI (OVCAR-8 ovarian)?
Answer: > 100 µM

Question: What about the TGI (MOLT-4 leukemia) of the same molecule?
Answer: > 100 µM

Question: What about the TGI (HCT-116 colon) of the same molecule?
Answer: > 100 µM

Question: What about the TGI (SNB-75 CNS) of the same molecule?
Answer: > 100 µM

Question: What about the TGI (SK-MEL-28 melanoma) of the same molecule?
Answer: > 100 µM

Question: And the TGI (U251 CNS)?
Answer: > 100 µM

Question: What about the TGI (MALME-3M melanoma) of the same molecule?
Answer: > 100 µM

Question: What about the TGI (UACC-62 melanoma) of the same molecule?
Answer: > 100 µM

Question: What about the TGI (SN12C renal) of the same molecule?
Answer: > 100 µM

Question: And the TGI (SK-MEL-5 melanoma)?
Answer: > 100 µM

Question: And the TGI (PC-3 prostate)?
Answer: > 100 µM

Question: What about the TGI (NCI-H522 lung) of the same molecule?
Answer: > 100 µM

Question: What about the TGI (SW-620 colon) of the same molecule?
Answer: > 100 µM

Question: What about the TGI (MDA-MB-435) of the same molecule?
Answer: > 100 µM

Question: What about the TGI (ACHN renal) of the same molecule?
Answer: > 100 µM

Question: What about the TGI (SK-MEL-2 melanoma) of the same molecule?
Answer: > 100 µM

Question: What about the TGI (HOP-62 NSCLC) of the same molecule?
Answer: > 100 µM

Question: What about the TGI (LOX IMVI melanoma) of the same molecule?
Answer: > 100 µM

Question: And the TGI (K-562 leukemia)?
Answer: > 100 µM

Question: `COc1cc2cc(c1Cl)N(C)C(=O)CC(OC(=O)C(C)C)C1(C)OC1C(C)C1CC(O)(NC(=O)O1)C(OC)/C=C/C=C(C)C2` (stereo not drawn) was tested. Which TGI (UO-31 renal) did it give?
Answer: 18.9 µM

Question: What about the TGI (A549 NSCLC) of the same molecule?
Answer: 33.1 µM

Question: What about the GI50 (T-47D breast) of the same molecule?
Answer: 29.1 µM

Question: What about the TGI (TK-10 renal) of the same molecule?
Answer: 36.4 µM

Question: What about the TGI (SK-OV-3 ovarian) of the same molecule?
Answer: 53.4 µM

Question: What about the TGI (OVCAR-4 ovarian) of the same molecule?
Answer: 40.8 µM

Question: And the TGI (OVCAR-5 ovarian)?
Answer: 38.6 µM

Question: And the TGI (RPMI-8226 leukemia)?
Answer: 12.9 µM

Question: And the TGI (EKVX NSCLC)?
Answer: 16.6 µM

Question: What about the TGI (NCI-H23 lung) of the same molecule?
Answer: 48.5 µM

Question: And the TGI (786-0 renal)?
Answer: 30.6 µM

Question: What about the TGI (MDA-N) of the same molecule?
Answer: 1.41 µM

Question: And the TGI (SF-268 CNS)?
Answer: 15.4 µM

Question: And the TGI (CAKI-1 renal)?
Answer: 19.1 µM

Question: What about the TGI (UACC-257 melanoma) of the same molecule?
Answer: 23.8 µM

Question: What about the TGI (A498 renal) of the same molecule?
Answer: 36.7 µM

Question: What about the TGI (BT-549 breast) of the same molecule?
Answer: 82.9 µM

Question: And the TGI (HCT-116 colon)?
Answer: 13.8 µM

Question: What about the GI50 (SK-MEL-28 melanoma) of the same molecule?
Answer: 17.6 µM

Question: What about the TGI (MALME-3M melanoma) of the same molecule?
Answer: 25.1 µM

Question: And the TGI (SN12C renal)?
Answer: 46.7 µM

Question: And the GI50 (ACHN renal)?
Answer: 0.0126 µM

Question: And the TGI (HOP-62 NSCLC)?
Answer: 62 µM
